# Test results reported in article PMC10080691, “Enzyme-Responsive Double-Locked Photodynamic Molecular Beacon for Targeted Photodynamic Anticancer Therapy” (Journal of the American Chemical Society, 2023).
# Legend:
# [1] = target: T1, MMP-2 (Homo sapiens, UniProt P08253); assay: MMP-2-responsive fluorescence activation and cleavage (LC-MS); format: biochemical; settings: 1 μM; for on/off ratio (fluorescence intensity at 25 h / initial intensity): MMP-2 only (2 μg mL-1), PBS pH 7.4, 0.1% Tween 80, 37 °C
# T1 sequence (P08253 110-660): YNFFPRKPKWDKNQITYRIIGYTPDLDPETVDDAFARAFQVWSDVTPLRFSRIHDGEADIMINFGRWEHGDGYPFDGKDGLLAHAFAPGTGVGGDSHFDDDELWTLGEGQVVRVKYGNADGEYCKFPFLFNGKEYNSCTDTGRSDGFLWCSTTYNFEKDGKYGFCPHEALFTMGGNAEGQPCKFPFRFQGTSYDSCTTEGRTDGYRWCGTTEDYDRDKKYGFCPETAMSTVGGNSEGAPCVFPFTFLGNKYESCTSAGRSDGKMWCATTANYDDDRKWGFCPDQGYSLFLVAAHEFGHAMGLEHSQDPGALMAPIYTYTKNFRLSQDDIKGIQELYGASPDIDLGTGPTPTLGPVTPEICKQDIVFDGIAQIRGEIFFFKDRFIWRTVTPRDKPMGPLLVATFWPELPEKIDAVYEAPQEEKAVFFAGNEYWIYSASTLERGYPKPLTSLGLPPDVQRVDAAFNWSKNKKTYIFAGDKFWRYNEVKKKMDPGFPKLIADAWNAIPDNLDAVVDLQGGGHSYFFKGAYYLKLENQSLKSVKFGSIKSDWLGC
# Experimental: To examine the response of PMB 1 toward MMP-2 and cathepsin B, its absorption and fluorescence spectra were monitored in the presence of these stimuli at 37 °C over a period of 25 h, using the non-cleavable analogue 14 as the negative control. For studying the MMP-2-responsive effect, MMP-2 (2 μg mL^–1) in PBS at pH 7.4 was used to mimic the high serum levels of this enzyme in patients with cancer.[68] The effect of cathepsin B (using a concentration of 1 unit mL^–1) was studied in the working buffer mentioned above at pH 5.0 to mimic the lysosomal environment.[69] […] Similar results were obtained for the study using cathepsin B in the buffer (Figure S8e–h). […] The more flexible ring-opening structure, however, might slightly increase the separation of the two moieties, leading to a lower FRET efficiency,[70] which could explain the small increase in fluorescence intensity. For comparison, the effect of these enzymes was also studied for 14. As expected, both the absorption and fluorescence spectra were not changed toward these two enzymes (Figure S9).
# The fluorescence recovery was then determined for 1 under the aforementioned conditions, assuming that the fluorescence intensity of 8 at the same concentration in the same medium was the maximum fluorescence intensity that could be recovered. […] In addition, we also determined the corresponding on/off ratios by dividing the fluorescence intensity at 25 h by the initial fluorescence intensity under each of these conditions. […]
# To further confirm that the restoration of fluorescence emission and singlet oxygen generation of PMB 1 was due to the cleavage by the enzymes, LC–MS was used to analyze the reaction mixtures (Figure 4). […] Similarly, for the mixture obtained after treating 1 (1 μM) with cathepsin B (1 unit mL^–1) in the working buffer at pH 5.0 for 6 h, a new signal with virtually the same retention time was detected in the chromatogram (Figure 4a–c). […]
# All of the solutions were stirred continuously at 37 °C. The ir electronic absorption and fluorescence spectra were monitored over a period of 25 h. […]
# [2] = tested on: MMP-2 and cathepsin B; assay: Dual-enzyme (sequential MMP-2 then cathepsin B) activation: fluorescence, singlet oxygen, LC-MS; format: biochemical; settings: for singlet oxygen generation (DPBF decay at 417 nm) after enzyme treatment: DPBF 30 μM, sequential MMP-2 and cathepsin B, irradiation λ > 610 nm, 300 s
# Experimental: To study the dual-enzyme-activated effect, PMB 1 was first treated with MMP-2 (2 μg mL^–1) in PBS for 6 h, followed by the addition of NaOAc, EDTA, and GSH and adjustment of the pH to 5.0 to create a working environment for cathepsin B. This enzyme (1 unit mL^–1) was then added, and the mixture was stirred for a further 19 h. […] The intensity at 25 h was almost the same as that at 24 h, which could be regarded as full activation, arising from the complete separation of the two components. In contrast, the absorption and fluorescence spectra of 14 remained unchanged upon this treatment (Figure S10).
# The fluorescence recovery was then determined for 1 under the aforementioned conditions, assuming that the fluorescence intensity of 8 at the same concentration in the same medium was the maximum fluorescence intensity that could be recovered. The results are depicted in Figure 3c. […] In addition, we also determined the corresponding on/off ratios by dividing the fluorescence intensity at 25 h by the initial fluorescence intensity under each of these conditions. […] For 14, the ratios were below 1.5 under all the conditions, showing that the effect of the two enzymes was negligible for this conjugate.
# Apart from the activation in fluorescence emission, the activation of 1 in singlet oxygen generation was also studied. PMB 1 (1 μM) was treated with MMP-2 and/or cathepsin B as described above and then mixed with DPBF (30 μM). The absorption spectra of these mixtures were monitored during light irradiation (λ > 610 nm) over a period of 300 s. […] The decrease in absorbance became more substantial for 1 after the treatment with both enzymes. As expected, the changes were negligible for 14 under all conditions (Figure S12).
# To study the dual-enzyme-activated effect, PMB 1 was treated with MMP-2 (for 6 h) and cathepsin B (for 19 h) sequentially as mentioned above. […]
# where W and Iabs are the DPBF photobleaching rate and the rate of light absorption, […]
# MMP-2 and Cathepsin B-Responsive Spectroscopic Studies
# Compound 1 or 14 was dissolved in DMF to form a 1 mM stock solution, which was then diluted to 1 μM with PBS at pH 7.4 or buffer solution (pH 5.0, 25 mM NaOAc, 1 mM EDTA, 500 μM GSH), both in the presence of 0.1% Tween 80 (v/v) . For the MMP-2-responsive studies, the solutions in PBS were treated with MMP-2 (2 μg mL-1). For the cathepsin B-responsive studies, the solutions in buffer solution were treated with cathepsin B (1 unit mL-1). For the dual-enzyme-responsive studies, the solutions in PBS were first treated with MMP-2 (2 μg mL-1) for 6 h, followed by the treatment with cathepsin B (1 unit mL-1) after the addition of NaOAc, EDTA, and GSH and adjustment of the pH, turning into the conditions of the buffer solution.
# All of the solutions were stirred continuously at 37 °C. The ir electronic absorption and fluorescence spectra were monitored over a period of 25 h.
# MMP-2- and Cathepsin B-Responsive Singlet Oxygen Generation Studies […]
# halogen lamp after passing through a water tank for cooling and a color glass filter (Newport) cut-on at λ = 610 nm. The decay of DPBF at λ = 417 nm was monitored with a spectrophotometer during the irradiation period. […]
# According to the above procedure, 1 and 14 were treated with MMP-2 and cathepsin B. After a period of 25 h, MeOH was added into the solutions for precipitating the enzymes. After filtration, the filtrate was analyzed by LC-MS using the aforementioned conditions. […]
Compound,"LC-MS signal of intact compound after enzyme treatment ([1]; MMP-2 (2 μg mL-1) in PBS, 6 h, new signal at 14.7 min (15))",on/off ratio (fluorescence intensity at 25 h / initial intensity) [1],singlet oxygen generation (DPBF decay at 417 nm) after enzyme treatment ([2]; 1 μM),"on/off ratio (fluorescence intensity at 25 h / initial intensity) ([2]; 1 μM, MMP-2 6 h then cathepsin B 19 h, 37 °C)","fluorescence recovery ([2]; 1 μM, MMP-2 (2 μg mL-1) in PBS 6 h, then cathepsin B (1 unit mL-1) pH 5.0 buffer 19 h, 37 °C, relative to 8)","LC-MS signal of intact compound after enzyme treatment ([2]; MMP-2 6 h then cathepsin B 19 h, fragments 17 and 18 formed)"
CCN(CC)c1ccc2nc3ccc(/N=N/c4ccc(N(C)CCCNC(=O)OC[C@@H]5[C@@H]6CCc7nnn(CC(=O)NCCCC[C@@H]8NC(=O)CNC(=O)[C@H](CCCCN)NC(=O)[C@H](CCCNC(=N)N)NC(=O)[C@H](C(C)C)NC(=O)CNC(=O)[C@H](CC(C)C)NC(=O)[C@@H]9CCCN9C(=O)[C@H](CCCCN)NC(=O)[C@@H](N)CSCc9cc(COc%10ccc(C%11=C%12C(C)=C(I)C(/C=C/c%13ccc(OCCOCCOCCOC)cc%13)=[N+]%12[B-](F)(F)n%12c(/C=C/c%13ccc(OCCOCCOCCOC)cc%13)c(I)c(C)c%12%11)cc%10)cc(c9)CSC[C@@H](C(N)=O)NC(=O)[C@H](CCCCN)NC(=O)[C@H](CCCCN)NC(=O)CNC(=O)[C@H](CC(C)C)NC(=O)[C@H](Cc9ccccc9)NC(=O)CNC(=O)[C@H](CCCCN)NC(=O)CNC8=O)c7CC[C@@H]65)cc4)cc3[n+](-c3ccccc3)c2c1 [compound 1],disappeared,ca. 2.7,turned on remarkably,16,85%,disappearance of the signal of 1
CCN(CC)c1ccc2nc3ccc(/N=N/c4ccc(N(C)CCCNC(=O)OC[C@@H]5[C@@H]6CCc7nnn(CC(=O)NCCCC[C@@H]8NC(=O)CNC(=O)[C@H](CCCCN)NC(=O)CNC(=O)CNC(=O)CNC(=O)CNC(=O)CNC(=O)[C@H](CCCCN)NC(=O)[C@@H](N)CSCc9cc(COc%10ccc(C%11=C%12C(C)=C(I)C(/C=C/c%13ccc(OCCOCCOCCOC)cc%13)=[N+]%12[B-](F)(F)n%12c(/C=C/c%13ccc(OCCOCCOCCOC)cc%13)c(I)c(C)c%12%11)cc%10)cc(c9)CSC[C@@H](C(N)=O)NC(=O)[C@H](CCCCN)NC(=O)[C@H](CCCCN)NC(=O)CNC(=O)CNC(=O)CNC(=O)CNC(=O)[C@H](CCCCN)NC(=O)CNC8=O)c7CC[C@@H]65)cc4)cc3[n+](-c3ccccc3)c2c1 [compound 14],,below 1.5,negligible,,,
